Calls of active or inactive are those of the source. The calls are words filed in the database; no cut-off is given here.
Legend:
[1] = molecular target: T1, Kinesin-like protein KIF11 (Homo sapiens) (UniProt P52732); assay: Inhibition of basal EG5 ATPase activity (unknown origin) by pyruvate kinase/lactate dehydrogenase enzyme coupled photometric assay
T1 sequence (whole entry): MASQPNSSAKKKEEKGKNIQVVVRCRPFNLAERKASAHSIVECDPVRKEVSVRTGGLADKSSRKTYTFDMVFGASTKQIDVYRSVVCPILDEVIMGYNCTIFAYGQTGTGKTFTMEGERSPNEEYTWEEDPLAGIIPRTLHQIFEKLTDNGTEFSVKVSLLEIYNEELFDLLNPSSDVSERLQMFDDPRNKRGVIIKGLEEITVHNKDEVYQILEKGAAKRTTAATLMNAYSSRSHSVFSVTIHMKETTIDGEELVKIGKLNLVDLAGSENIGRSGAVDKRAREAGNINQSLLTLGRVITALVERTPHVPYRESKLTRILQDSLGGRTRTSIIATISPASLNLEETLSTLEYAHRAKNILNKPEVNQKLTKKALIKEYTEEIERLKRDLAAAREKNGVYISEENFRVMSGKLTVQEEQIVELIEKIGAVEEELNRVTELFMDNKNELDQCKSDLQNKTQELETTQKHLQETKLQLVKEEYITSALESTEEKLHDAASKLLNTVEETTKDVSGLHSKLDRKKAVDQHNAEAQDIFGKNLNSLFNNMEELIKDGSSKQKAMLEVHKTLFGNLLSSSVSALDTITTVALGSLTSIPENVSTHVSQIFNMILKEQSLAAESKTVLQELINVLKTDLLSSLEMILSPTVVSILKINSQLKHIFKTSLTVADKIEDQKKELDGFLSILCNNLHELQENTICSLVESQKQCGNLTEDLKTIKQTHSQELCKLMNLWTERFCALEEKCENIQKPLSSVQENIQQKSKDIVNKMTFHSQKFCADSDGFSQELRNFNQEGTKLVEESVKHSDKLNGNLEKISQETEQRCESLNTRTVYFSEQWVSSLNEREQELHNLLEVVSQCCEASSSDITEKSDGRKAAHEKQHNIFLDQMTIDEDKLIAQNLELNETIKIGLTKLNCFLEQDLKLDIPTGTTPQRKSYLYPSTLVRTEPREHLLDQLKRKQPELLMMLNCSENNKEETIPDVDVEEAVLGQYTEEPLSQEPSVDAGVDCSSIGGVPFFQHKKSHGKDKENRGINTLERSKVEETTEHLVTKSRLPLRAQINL

[2] = molecular target: T2, Kinesin-like protein KIF11 (Homo sapiens, UniProt P52732); assay: Inhibition of MT-stimulated EG5 ATPase activity (unknown origin) by pyruvate kinase/lactate dehydrogenase enzyme coupled photometric assay
T2 sequence (P52732 whole entry): T1 sequence (whole entry)

[3] = molecular target: T2, Kinesin-like protein KIF11; assay: Inhibition EG5 (unknown origin)

Row | Structure (SMILES) | inhibition [1] | IC50 ([2]; read-out: IC50) | IC50 [3] | IC50 [2]
1 | CC(=O)N1N=C(NC2=NC(=O)/C(=C/c3ccccc3F)S2)SC1(C)c1ccccc1 (configuration not stated) | inactive | 70 to 133 µM | – | –
2 | COc1ccc(/C=C2\SC(NC3=NN(C(C)=O)C(C)(c4ccccc4)S3)=NC2=O)cc1OC (configuration not stated) | inactive | 60 to 112 µM | – | –
3 | CC(=O)C1=NN(c2cc(C)ccc2F)C[C@]1(CCCN(C)C)c1ccccc1 | – | – | 0.0002 µM | –
4 | COc1cccc(/C=C2\SC(NC3=NN(C(C)=O)C(C)(c4ccccc4)S3)=NC2=O)c1 (configuration not stated) | inactive | 51 µM | – | –
5 | CC(=O)N1N=C(NC2=NC(=O)/C(=C/c3cccc([N+](=O)[O-])c3)S2)SC1(C)c1ccccc1 (configuration not stated) | inactive | 27.5 µM | – | –
6 | CC(=O)N1N=C(NC2=NC(=O)/C(=C/c3ccccc3)S2)SC1(C)c1ccccc1 (configuration not stated) | inactive | 62.1 µM | – | –
7 | CC(=O)N1N=C(NC2=NC(=O)/C(=C/c3ccccn3)S2)SC1(C)c1ccccc1 (configuration not stated) | inactive | 120 µM | – | –
8 | CC(=O)N1N=C(NC2=NC(=O)/C(=C/c3ccccc3[N+](=O)[O-])S2)SC1(C)c1ccccc1 (configuration not stated) | – | – | – | Active
9 | CC(=O)N1N=C(NC2=NC(=O)/C(=C/c3ccc(N(C)C)cc3)S2)SC1(C)c1ccccc1 (configuration not stated) | inactive | 90 to 252 µM | – | –
10 | CC(=O)N1N=C(NC2=NC(=O)/C(=C/c3ccc(Br)cc3)S2)SC1(C)c1ccccc1 (configuration not stated) | inactive | 39.2 µM | – | –
11 | CC(=O)NC1=NN(C(C)=O)C(C)(c2ccccc2)S1 (configuration not stated) | – | 0.8 µM | – | –
12 | CC(=O)N1N=C(NC2=NC(=O)/C(=C/c3cccs3)S2)SC1(C)c1ccccc1 (configuration not stated) | inactive | 133 µM | – | –
13 | CC(=O)N1N=C(NC2=NC(=O)/C(=C/c3ccco3)S2)SC1(C)c1ccccc1 (configuration not stated) | inactive | 120 to 331 µM | – | –
14 | CC(=O)N1N=C(NC2=NC(=O)/C(=C/c3cccc(Cl)c3)S2)SC1(C)c1ccccc1 (configuration not stated) | inactive | 47.8 µM | – | –
15 | CC(=O)N1N=C(NC2=NC(=O)/C(=C/C=C/c3ccc(N(C)C)cc3)S2)SC1(C)c1ccccc1 (configuration not stated) | inactive | 129 µM | – | –
16 | CC(=O)N1N=C(NC2=NC(=O)/C(=C/c3ccc([N+](=O)[O-])cc3)S2)SC1(C)c1ccccc1 (configuration not stated) | inactive | 20.2 µM | – | –
17 | CC(=O)N1N=C(NC2=NC(=O)/C(=C/c3ccccc3Cl)S2)SC1(C)c1ccccc1 (configuration not stated) | inactive | 13.2 µM | – | –
18 | COc1ccc(/C=C2\SC(NC3=NN(C(C)=O)C(C)(c4ccccc4)S3)=NC2=O)cc1 (configuration not stated) | inactive | 42.7 µM | – | –
19 | CCNCCS(=O)(=O)NC[C@@]1(c2ccccc2)SC(NC(=O)C(C)(C)C)=NN1C(=O)C(C)(C)C [LITRONESIB] | – | – | 0.007 µM | –
20 | COc1ccc(/C=C/C=C2\SC(NC3=NN(C(C)=O)C(C)(c4ccccc4)S3)=NC2=O)cc1 (configuration not stated) | inactive | 90 to 414 µM | – | –
21 | COc1cccc(/C=C2\SC(NC3=NN(C(C)=O)C(C)(c4ccccc4)S3)=NC2=O)c1OC (configuration not stated) | inactive | 71.9 µM | – | –
22 | CC(=O)N1N=C(NC2=NC(=O)/C(=C/C=C/c3ccccc3)S2)SC1(C)c1ccccc1 (configuration not stated) | inactive | 75 to 248 µM | – | –
23 | CC(=O)N1N=C(NC2=NC(=O)/C(=C/c3ccc(OCc4ccccc4)cc3)S2)SC1(C)c1ccccc1 (configuration not stated) | inactive | 17.2 µM | – | –
24 | CC(=O)N1N=C(NC2=NC(=O)/C(=C/c3ccc(C)cc3)S2)SC1(C)c1ccccc1 (configuration not stated) | inactive | 63.3 µM | – | –
25 | CC(=O)N1N=C(NC2=NC(=O)/C(=C/c3ccc(Cl)cc3)S2)SC1(C)c1ccccc1 (configuration not stated) | inactive | 106 µM | – | –
26 | CC1=C(C(=O)OC(C)C)C(c2ccc(Cl)cc2)n2c(s/c(=C\c3ccc(OCC(=O)O)cc3)c2=O)=N1 (configuration not stated) | – | – | 4.6 µM | –
